We go through five molecules from article PMC10141607, “Powerful Avidity with a Limited Valency for Virus-Attachment Blockers on DC-SIGN: Combining Chelation and Statistical Rebinding with Structural Plasticity of the Receptor” (ACS Central Science, 2023).

Experiment [1] has as its target T1, DC-SIGN ECD oriented surface (Homo sapiens, UniProt Q9NNX6).
T1 construct: made in house
T1 sequence (Q9NNX6 59-404 limits assumed): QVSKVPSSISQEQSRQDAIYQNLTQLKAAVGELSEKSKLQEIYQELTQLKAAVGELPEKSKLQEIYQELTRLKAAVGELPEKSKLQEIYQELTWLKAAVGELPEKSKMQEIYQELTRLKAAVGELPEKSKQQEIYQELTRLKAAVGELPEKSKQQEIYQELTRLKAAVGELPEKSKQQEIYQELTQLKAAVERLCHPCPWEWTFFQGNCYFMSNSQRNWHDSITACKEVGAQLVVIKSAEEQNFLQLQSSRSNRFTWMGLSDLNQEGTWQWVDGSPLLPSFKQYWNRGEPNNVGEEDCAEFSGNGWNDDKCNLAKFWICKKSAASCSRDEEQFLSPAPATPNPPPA
Format: binding. The note with it: for Kd: SPR direct interaction on DC-SIGN ECD oriented surface, 25 mM Tris pH 8, 150 mM NaCl, 4 mM CaCl2, 4% DMSO, read-out: KD app; for ß factor (valency-corrected enhancement factor): from SPR KDapp, compound 3.1 as monovalent reference.

Another experiment has as its system DC-SIGN ECD. Also noted: method as in PMID 25648900. The note with it: SPR inhibition study (competition experiment); cited from earlier work.
The target in another experiment is T2, DC-SIGN ECD tetramer (Homo sapiens, UniProt Q9NNX6).
T2 sequence (Q9NNX6 59-404 limits assumed): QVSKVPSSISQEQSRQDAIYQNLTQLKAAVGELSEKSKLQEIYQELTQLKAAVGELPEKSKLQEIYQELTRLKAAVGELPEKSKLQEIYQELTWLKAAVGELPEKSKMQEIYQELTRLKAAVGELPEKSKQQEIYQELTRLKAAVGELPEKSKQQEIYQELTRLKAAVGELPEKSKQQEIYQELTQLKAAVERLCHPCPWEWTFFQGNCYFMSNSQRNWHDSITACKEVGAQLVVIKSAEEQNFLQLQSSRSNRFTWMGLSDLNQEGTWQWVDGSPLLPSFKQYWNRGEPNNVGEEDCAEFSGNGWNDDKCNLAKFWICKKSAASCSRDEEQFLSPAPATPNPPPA
Briefly: Isothermal titration calorimetry (ITC). Format: binding. The note with it: 25°C. How it is done:
Thermodynamic parameters of multivalent binding as measured by isothermal titration calorimetry (ITC) were analyzed for compounds 3.2 and 3.6. Usually, ITC should provide, among other parameters, a “real” KD value; however, here we prefer to refer to a KDapp. Indeed, in these ITC experiments, we are not evaluating an affinity (a 1:1 unitary interaction, defined by KD) but rather an avidity phenomenon resulting from cumulative unitary bonds (each of whose individual contributions to the overall avidity cannot be deconvoluted). In addition, this avidity results from several multivalent modalities, a population of binding modes. Thus, the use of KDapp, instead of KD, emphasizes that the values determined here are the result of a complex phenomenon. The ITC binding analysis (Figure 3 and Table 2) is fully in agreement with the other biophysical techniques (see Table 2 for SPR and Figure 2C for FP of 3.6) with KDapp values equal to 58 ± 1 nM and 1.1 ± 0.2 μM for compounds 3.6 and 3.2, respectively. […] Increasing the local concentration close to the site is a major source of avidity generation. The ΔH difference is offset by a more unfavorable entropy for 3.6, which probably originates from the loss of degrees of freedom of construct extremities, six versus two, upon binding. Hydrophobic effect may also contribute, since the hydrophobic rod is shielded better from the solvent by the six units of ligand 1 in 3.6([35]) and exposing the hydrophobic parts and ordering the solvent around them is entropically costly. Combining the enthalpy and entropy effects, the ΔG for the hexavalent ligand improves by 10 kJ/mol. It is interesting to note that a stoichiometry of 1 for the complex with 3.6 is observed, supporting again the chelation mode. On the contrary, a stoichiometry n = 1.5 is observed for 3.2, with a KDapp in the μM range, which is compatible with a mixed chelation and clustering binding mode. […]
This graph is supplementary evidence of the multivalent binding, here chelate binding mode for 3.2, that occur over a DC-SIGN oriented surface.
3. Isothermal titration calorimetric analysis
ITC experiments were performed at 25°C using TA Instrument Nano Isothermal Titration Calorimeter Low volume (Nano ITC LV). Compound 3.6, 3.2 and DC-SIGN ECD were prepared in 25 mM Tris pH 8; 150 mM NaCl, 4 mM CaCl2, 4 % DMSO. Compounds (30 µM of 3.6 or 375 µM of 3.2) were stepwise injected (1.03 µL) to 190 µL of DC-SIGN ECD tetramer (respectively, 30 µM or 48.75 µM) in the cell. The blank titrations (compounds to buffer) were done for subtraction of dilution heat from the integrated data. […]
The free energy changes (∆G) and entropy (∆S) were calculated using equation (2): […]

Experiment [2] concerns the target T3, DC-SIGN extracellular domain (human), Q9NNX6.
T3 chain: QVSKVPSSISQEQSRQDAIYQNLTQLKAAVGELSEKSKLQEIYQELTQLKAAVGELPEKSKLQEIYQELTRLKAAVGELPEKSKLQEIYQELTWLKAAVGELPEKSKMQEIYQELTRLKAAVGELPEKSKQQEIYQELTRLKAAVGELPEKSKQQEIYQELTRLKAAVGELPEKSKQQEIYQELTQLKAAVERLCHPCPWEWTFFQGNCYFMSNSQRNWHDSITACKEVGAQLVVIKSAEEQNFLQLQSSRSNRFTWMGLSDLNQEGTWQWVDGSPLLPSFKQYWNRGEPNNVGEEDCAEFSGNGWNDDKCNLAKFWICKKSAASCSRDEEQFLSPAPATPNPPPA
Briefly: AUC; sedimentation velocity; DC-SIGN tetramer 4 uM alone (same peak with 5 nM to 500 nM compound 3.6); monomers to tetramer. The following applies: remark: other sources report otherwise.

“And” between values parts separate entries of the source, which are not always exact repeats. Equal values may be shown once.

Consider `O=C(NCc1ccc(CO)cc1)C1CC(OCCn2cc(COCC(COCCOCCn3cc(-c4cc(OCCOCCO)c(-c5cn(CCOCCOCC(COCc6cn(CCOC7CC(C(=O)NCc8ccc(CO)cc8)C(C(=O)NCc8ccc(CO)cc8)CC7OC7OC(CO)C(O)C(O)C7O)nn6)(COCc6cn(CCOC7CC(C(=O)NCc8ccc(CO)cc8)C(C(=O)NCc8ccc(CO)cc8)CC7OC7OC(CO)C(O)C(O)C7O)nn6)COCc6cn(CCOC7CC(C(=O)NCc8ccc(CO)cc8)C(C(=O)NCc8ccc(CO)cc8)CC7OC7OC(CO)C(O)C(O)C7O)nn6)nn5)cc4OCCOCCO)nn3)(COCc3cn(CCOC4CC(C(=O)NCc5ccc(CO)cc5)C(C(=O)NCc5ccc(CO)cc5)CC4OC4OC(CO)C(O)C(O)C4O)nn3)COCc3cn(CCOC4CC(C(=O)NCc5ccc(CO)cc5)C(C(=O)NCc5ccc(CO)cc5)CC4OC4OC(CO)C(O)C(O)C4O)nn3)nn2)C(OC2OC(CO)C(O)C(O)C2O)CC1C(=O)NCc1ccc(CO)cc1` (stereo not shown) [Compound 1.6], for which, in experiment [1], the Kd is 0.17 µM and 0.172 µM; the “ß factor (valency-corrected enhancement factor)” value (from here on “ß factor”) was 38.

On to `[N-]=[N+]=NCCOC1CC(C(=O)NCc2ccc(CO)cc2)C(C(=O)NCc2ccc(CO)cc2)CC1OC1OC(CO)C(O)C(O)C1O` (stereo not shown) [Compound 1], for which, in the experiment with DC-SIGN ECD, the IC50 (in general, the midpoint of a concentration-inhibition curve) is 270 µM.

On to `O=C(NCc1ccc(CO)cc1)C1CC(OCCn2cc(COCC(COCCOCCn3cc(-c4cc(OCCOCCO)c(C#Cc5cc(OCCOCCO)c(-c6cn(CCOCCOCC(COCc7cn(CCOC8CC(C(=O)NCc9ccc(CO)cc9)C(C(=O)NCc9ccc(CO)cc9)CC8OC8OC(CO)C(O)C(O)C8O)nn7)(COCc7cn(CCOC8CC(C(=O)NCc9ccc(CO)cc9)C(C(=O)NCc9ccc(CO)cc9)CC8OC8OC(CO)C(O)C(O)C8O)nn7)COCc7cn(CCOC8CC(C(=O)NCc9ccc(CO)cc9)C(C(=O)NCc9ccc(CO)cc9)CC8OC8OC(CO)C(O)C(O)C8O)nn7)nn6)cc5OCCOCCO)cc4OCCOCCO)nn3)(COCc3cn(CCOC4CC(C(=O)NCc5ccc(CO)cc5)C(C(=O)NCc5ccc(CO)cc5)CC4OC4OC(CO)C(O)C(O)C4O)nn3)COCc3cn(CCOC4CC(C(=O)NCc5ccc(CO)cc5)C(C(=O)NCc5ccc(CO)cc5)CC4OC4OC(CO)C(O)C(O)C4O)nn3)nn2)C(OC2OC(CO)C(O)C(O)C2O)CC1C(=O)NCc1ccc(CO)cc1` (stereo not shown) [Compound 2.6], for which, in experiment [1], the Kd is 0.14 ± 0.008 µM and the “ß factor” value worked out at 47.

Regarding `O=C(NCc1ccc(CO)cc1)C1CC(OCCn2cc(-c3cc(OCCOCCO)c(C#Cc4cc(OCCOCCO)c(C#Cc5cc(OCCOCCO)c(-c6cn(CCOC7CC(C(=O)NCc8ccc(CO)cc8)C(C(=O)NCc8ccc(CO)cc8)CC7OC7OC(CO)C(O)C(O)C7O)nn6)cc5OCCOCCO)cc4OCCOCCO)cc3OCCOCCO)nn2)C(OC2OC(CO)C(O)C(O)C2O)CC1C(=O)NCc1ccc(CO)cc1` (stereo not shown) [Compound 3.2], on DC-SIGN ECD tetramer, the “n (stoichiometry)” value was 1.5 and 1.56 ± 0.04; the ΔH result is on record as “–85.27 ± 4.48 kJ/mol”. On DC-SIGN ECD tetramer (calculated), the TΔS result is reported as “–54.4 kJ/mol”. The Kd on DC-SIGN ECD tetramer (one-site binding model, read-out: KDapp) was found to be 1.1 ± 0.2 µM. In addition, the IC50 in the experiment on DC-SIGN ECD is 8 µM. Further, in experiment [1], the Kd is 2.4 µM and 2.44 µM; the “ß factor” value is recorded as 8.

B1: DC-SIGN extracellular domain, Q9NNX6 59-404 (domain or fragment)
chain: QVSKVPSSISQEQSRQDAIYQNLTQLKAAVGELSEKSKLQEIYQELTQLKAAVGELPEKSKLQEIYQELTRLKAAVGELPEKSKLQEIYQELTWLKAAVGELPEKSKMQEIYQELTRLKAAVGELPEKSKQQEIYQELTRLKAAVGELPEKSKQQEIYQELTRLKAAVGELPEKSKQQEIYQELTQLKAAVERLCHPCPWEWTFFQGNCYFMSNSQRNWHDSITACKEVGAQLVVIKSAEEQNFLQLQSSRSNRFTWMGLSDLNQEGTWQWVDGSPLLPSFKQYWNRGEPNNVGEEDCAEFSGNGWNDDKCNLAKFWICKKSAASCSRDEEQFLSPAPATPNPPPA
In the case of B1, the stoichiometry N (in general, a count of units in the complex or per binding partner) in experiment [2] came out at 4.
